In brackets after ≈: the same amount, converted by molar mass.
Assays:
[1] = Lipophilicity, log P of the compound; type: physicochemical; details: octanol/water
[2] = Cytotoxicity against HEK293T cells at 50 ug/ml after 72 hrs by MTT assay; type: cell-based, HEK-293T; details: human, read-out: INH
[3] = test system: Mycobacterium tuberculosis; experiment: microbe, parasite or virus in culture; details: H37Rv ATCC 27294, 672 h
Description: Antimycobacterial activity against Mycobacterium tuberculosis H37Rv ATCC 27294 after 28 days by agar dilution method

[4] = Therapeutic index, ratio of inhibition of HEK293T cells to MIC for Mycobacterium tuberculosis H37Rv ATCC 27294; type: cell-based, HEK-293T; details: human, read-out: TI

Structure (SMILES)	logP [1]	cytotoxicity at 72 h, 50 ug/ml [2] [%]	MIC [3] [µg/mL]	selectivity ratio [4]
c1ccc(-c2cc3c(ccc4oc5ccccc5c43)o2)cc1	4.04	32.1	6.25 (≈ 22 µM)	
Cc1cccc(-c2cc3c(ccc4oc5ccccc5c43)o2)c1	4.53	56.8	12.5 (≈ 41.9 µM)	
COc1ccc(-c2cc3c(ccc4oc5ccccc5c43)o2)c(C)c1	4.4	32.1	3.12 (≈ 9.5 µM)	> 10
Cc1ccc(-c2cc3c(ccc4oc5ccccc5c43)o2)cc1	4.53	21.6	6.25 (≈ 20.9 µM)	
COc1ccc(-c2cc3c(ccc4oc5ccccc5c43)o2)cc1	3.92	13.8	50 (≈ 159 µM)	
CCCCCc1ccc(-c2cc3c(ccc4oc5ccccc5c43)o2)cc1	5.78	40.2	12.5 (≈ 35.3 µM)	
CCCCCCc1cc2c(ccc3oc4ccccc4c32)o1	4.8	32.1	6.25 (≈ 21.4 µM)	
FC(F)(F)Oc1ccc(-c2cc3c(ccc4oc5ccccc5c43)o2)cc1	5.57	72.1	50 (≈ 136 µM)	
Fc1ccc(-c2cc3c(ccc4oc5ccccc5c43)o2)c(F)c1	4.36	34.1	50 (≈ 156 µM)	
c1ccc2c(c1)oc1ccc3oc(-c4ccsc4)cc3c12	3.97	23.1	50 (≈ 172 µM)	
CC[C@@H](CO)NCCN[C@@H](CC)CO [ETHAMBUTOL]			3.13 (≈ 15.3 µM)	
NNC(=O)c1ccncc1 [ISONIAZID]			0.1 (≈ 0.729 µM)	
NC(=O)c1cnccn1 [PYRAZINAMIDE]			50 (≈ 406 µM)	

— ChEMBL document CHEMBL2424559, “Design, synthesis and antitubercular evaluation of novel 2-substituted-3H-benzofuro benzofurans via palladium-copper catalysed Sonagashira coupling reaction” (Bioorg Med Chem Lett, 2013)
